Experimental data: patent US20070292528A1, “Kcnma1 as a Therapeutic Target in Cancer Treatment” (priority 2003, published 2007)
Entries after “also recorded” stand apart in the source; their conditions may differ.

Tests used:
[1] = system: LNCaP; test: Growth (cell count) of LNCaP under iberiotoxin/17β-estradiol treatment; assay type: cell-based, human; settings: two days; for effect on estradiol-stimulated growth of LNCaP: 0.05 μM Iberiotoxin + 0.1 μM Estradiol
Description: (§1) “K” represents a control; “I” represents treatment with 0.05 μM Iberiotoxin (Sigma); “E” represents treatment with 0.1 μM Estradiol; and “E+I” represents treatment with both 0.05 μM Iberiotoxin and 0.1 μM Estradiol. Cells were grown in OPTI-MEM (Invitrogen) +0.4% Albu-max (Invitrogen) for two days.
(§2) Cell culture: As standard, the cells were grown in OPTIMEM (Invitrogen) containing 10% FCS (Amimed) and 1% Pen/Strep (Amimed). For iberiotoxin/17β-estradiol treatment 25000 cells were seeded in OPTIMEM, 10% FCS into 6 well plates (Falcon). After one day incubation, the medium was changed to OPTIMEM 1%FCS, 1% Pen/Strep. After another day of incubation the experiment was started by changing the Medium to OPTIMEM 0.4% Albumax (Invitrogen), 1% Pen/Strep containing either only solvents, 50 nM iberiotoxin (Sigma), 100 nM 17β-estradiol (Sigma), or a combination of both. After two days of incubation, the cells were collected and counted.

[2] = system: PC-3; test: Growth (cell count) of PC-3 under iberiotoxin/17β-estradiol treatment; assay type: cell-based, human; settings: two days
Description: as §1, §2

[3] = system: BPH-1; test: Growth (cell count) of BPH-1 under iberiotoxin/17β-estradiol treatment; assay type: cell-based, human; settings: two days; for effect on estradiol-stimulated growth of BPH-1: 0.05 μM Iberiotoxin + 0.1 μM Estradiol
Description: as §1, §2

[4] = system: potassium channels in membrane patches of BPH-1 cells; test: Patch clamp, cell excised inside/out membrane patches of BPH-1 cells; assay type: cell-based, human; settings: preliminary
Source text: (§3) Numerous channels are active under high (1 mmol/l) intracellular Ca^2+ concentration in the membrane patch from PC-3 cells (A), thus single channel currents cannot be resolved. In contrast, little channel activity is present in the BPH-1 membrane patch (B).
(§4) Patch clamp recording was used to further assess the role of KCNMA1.
(§5) The membrane voltage of PC-3 cells is hyperpolarized when compared with that of BPH-1 cells. Moreover, paxillin inhibited potassium channels in cell excised inside/out membrane patches of PC-3 cells, but not in membrane patches of BPH-1 cells. In cell excised inside/out membrane patches of PC-3 cells we found pronounced activity of Ca^2+ activated K^+ channels, while little channel activity was found in excised membrane patches of BPH-1 cells (FIG. 10). Removal of Ca^2+ from the cytosolic side (0 mmol/l) abolished channel activity in both membrane patches of PC-3 and BPH-1 cells. Channel activity was recovered at cytosolic Ca^2+ concentrations of 1 μmol/l (0.001). These preliminary results fit very well to the expression data of KCNMA1 obtained so far.

[5] = molecular target: T1, potassium channels in membrane patches of PC-3 cells (Homo sapiens, UniProt Q12791); test: Patch clamp, cell excised inside/out membrane patches of PC-3 cells; assay type: cell-based; settings: preliminary
T1 construct: endogenous in cells; host or cells: PC-3 prostate cancer cells (excised inside/out membrane patches)
T1 sequence (Q12791 whole entry): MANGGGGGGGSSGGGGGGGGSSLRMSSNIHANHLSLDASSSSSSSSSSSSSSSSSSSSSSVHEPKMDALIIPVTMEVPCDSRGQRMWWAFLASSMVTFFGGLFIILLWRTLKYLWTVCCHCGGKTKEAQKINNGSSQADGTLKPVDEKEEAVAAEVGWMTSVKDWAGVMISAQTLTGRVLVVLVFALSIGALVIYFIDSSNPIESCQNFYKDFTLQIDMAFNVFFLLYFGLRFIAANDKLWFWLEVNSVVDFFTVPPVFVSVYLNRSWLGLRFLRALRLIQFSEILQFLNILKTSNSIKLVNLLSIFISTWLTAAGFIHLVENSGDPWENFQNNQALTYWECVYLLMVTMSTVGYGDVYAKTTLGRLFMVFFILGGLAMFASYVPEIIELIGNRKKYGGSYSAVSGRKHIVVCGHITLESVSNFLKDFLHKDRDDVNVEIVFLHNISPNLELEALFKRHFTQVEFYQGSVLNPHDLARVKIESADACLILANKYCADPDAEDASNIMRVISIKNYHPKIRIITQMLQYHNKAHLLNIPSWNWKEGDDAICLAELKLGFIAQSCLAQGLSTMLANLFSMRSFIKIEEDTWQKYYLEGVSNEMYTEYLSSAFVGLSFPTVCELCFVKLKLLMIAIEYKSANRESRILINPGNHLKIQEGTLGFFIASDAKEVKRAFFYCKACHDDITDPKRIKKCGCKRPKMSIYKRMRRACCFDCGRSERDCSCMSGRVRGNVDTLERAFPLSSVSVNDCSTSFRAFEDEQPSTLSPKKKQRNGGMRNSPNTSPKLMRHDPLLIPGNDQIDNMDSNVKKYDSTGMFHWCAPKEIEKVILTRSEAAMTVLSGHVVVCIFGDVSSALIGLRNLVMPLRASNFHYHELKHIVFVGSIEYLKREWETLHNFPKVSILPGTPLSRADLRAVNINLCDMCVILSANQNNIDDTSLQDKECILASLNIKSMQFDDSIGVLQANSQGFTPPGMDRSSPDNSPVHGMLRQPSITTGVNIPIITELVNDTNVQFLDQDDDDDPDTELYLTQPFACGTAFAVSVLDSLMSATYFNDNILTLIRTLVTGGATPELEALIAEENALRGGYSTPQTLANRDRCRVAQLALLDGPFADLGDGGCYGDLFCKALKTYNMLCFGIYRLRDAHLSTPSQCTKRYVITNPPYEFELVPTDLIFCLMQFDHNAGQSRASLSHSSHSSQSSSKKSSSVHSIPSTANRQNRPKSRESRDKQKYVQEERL
Source text: as §3, §4, §5

[6] = system: whole cell conductances of PC-3 cells; test: Whole cell patch clamp, PC-3 cells; assay type: cell-based, human; settings: iberiotoxin 30 nM, preliminary
[7] = system: whole cell conductances of BPH-1 cells; test: Whole cell patch clamp, BPH-1 cells; assay type: cell-based, human; settings: iberiotoxin 30 nM, preliminary
[8] = 100 nM 17β-estradiol, listed as 17β-estradiol
[9] = 50 nM iberiotoxin, listed as Iberiotoxin

C[C@]12CC[C@@H]3c4ccc(O)cc4CC[C@H]3[C@@H]1CC[C@@H]2O [estradiol, 17β-estradiol]
effect on growth of LNCaP (words) ([1]; 100 nM 17β-estradiol): growth promoting effect
effect on growth of LNCaP (words) [1, 8]: increased proliferation; also recorded: increased its growth rate
effect on growth of PC-3 (words) ([2]; 100 nM 17β-estradiol): not
effect on growth of PC-3 (words) [2, 8]: no effect
effect on growth of BPH-1 (words) ([3]; 100 nM 17β-estradiol): growth promoting effect
effect on growth of BPH-1 (words) [3, 8]: increased proliferation

CC(C)(O)[C@H]1O[C@H]2CC[C@@]3(C)[C@@](O)(CC[C@H]4Cc5c([nH]c6ccccc56)[C@@]43C)C2=CC1=O [paxillin]
inhibition of potassium channels in excised inside/out membrane patches of BPH-1 cells [4]: not
inhibition of potassium channels in excised inside/out membrane patches of PC-3 cells [5]: inhibited

iberiotoxin (QFTDVDCSVSKECWSVCKDLFGVDRGKCMGKKCRCYQ; Iberiotoxin; UniProt P24663 1-37, looked up)
effect on estradiol-stimulated growth of LNCaP [1]: completely reversed; also recorded: could be blocked
effect on estradiol-stimulated growth of LNCaP ([1]; listed as Iberiotoxin): blocked the growth stimulus
effect on growth of LNCaP (words) ([1]; 50 nM iberiotoxin): not and no significant effect and did not react
effect on growth of LNCaP (words) [1, 9]: no effect
reduction of the growth rate of PC-3 ([2]; 0.05 μM Iberiotoxin, OPTI-MEM + 0.4% Albu-max): 10-15%
effect on growth of PC-3 (words) ([2]; 50 nM iberiotoxin): significantly decreased growth rate; also recorded: significant reduction of the growth rate; also recorded: significant growth inhibition; also recorded: could be reduced
effect on whole cell conductances of PC-3 cells [6]: clear inhibitory effect
effect on whole cell conductances of BPH-1 cells [7]: no significant effects
effect on estradiol-stimulated growth of BPH-1 [3]: completely reversed
effect on estradiol-stimulated growth of BPH-1 ([3]; listed as Iberiotoxin): blocked the growth stimulus
effect on growth of BPH-1 (words) ([3]; 50 nM iberiotoxin): not and no significant effect
effect on growth of BPH-1 (words) [3, 9]: no effect
